The values that follow come from US20250326715A1, “NOVEL MAIN PROTEASE INHIBITORS, AND COMPOSITIONS AND METHODS THEREOF” (University of Massachusetts, priority 2023, published 2025).

Data set [1] deals with SARS-CoV-2. As to the kind of experiment: Antiviral activity in SARS-CoV-2-infected K18-hACE2 transgenic mice. Format: in vivo. To be noted: K18-ACE2 mice; for viral RNA loads and titers in lung tissue vs vehicle control: 72 h treatment; for inflammatory cytokines and chemokines (IFN-β, TNF-α, IL-1β, IL-6) in lung tissue: infected for 72 hours; for protection from SARS-CoV2-induced weight loss and lethality: intranasal 10 mg/kg once daily for 3 days starting 2 h prior to infection; for protection from SARS-CoV-2-induced weight loss and lethality: intraperitoneal 25 mg/kg twice daily for 5 days, post-infection; for histopathological analysis of lung tissue: treatment for 5 days. The text has this: For these studies, K18-hACE2 transgenic mice (K18-ACE2) were used that express human ACE2 under the control of the epithelial cell cytokeratin-18 (K18) promoter as this model provides robust SARS-CoV-2 infection.
All animal experiments were approved by the Institutional Animal Care Use Committees at the University of Massachusetts Chan Medical School. Animal were kept in a specific pathogen free (SPF) environment. Hemizygous K18-hACE2 C57BL/6J mice (strain: […] (K18-ACE2)2Prlmn/J) were obtained from The Jackson Laboratory. 8-12-week-old male and female mice were anesthetized with isoflurane and infected intranasally with 3×10^4 PFU of SARS-CoV-2. […] Mice were monitored daily for weight loss and survival. Lung samples were collected at indicated time points and placed in a bead homogenizer tube with 1 ml of DMEM+2% FBS for homogenization, then 100 μl of this mixture was placed in PBS for tittering or in 300 μl Trizol LS (Invitrogen) for RNA extraction. For histology, lungs were perfused with 10 U/mL Heparin, intratracheally inflated with 10% buffered-formalin and dissected from mice. Tissues were fixed in 4% paraformaldehyde overnight and embedded in 10% paraffin. Five micrometer thin sections were stained by H&E. Histomorphology, grading of histology scores and evaluation of inflammation of each H&E slide was evaluated by Applied Pathology Systems.

A further data set in a line: in vivo. The following applies: male, C57Bl/6, mouse.
A further data set deals with A549-hACE2 cells. As to the kind of experiment: Cytotoxicity assay (LDH release). It counts as cell-based, human.
Data set [2] in a line: Aqueous solubility (comparison in words).
Data set [3] deals with SARS-CoV-2. It counts as cell-based. The following applies: Huh7.5 cells, 2 μM, 24 h.
The target of the next data set is M^Pro (Severe acute respiratory syndrome coronavirus 2, UniProt P0DTD1). Kind of data set: Chemoproteomic enrichment of proteins labelled by SM144 in A549-hACE2 lysate spiked with M^Pro. To be noted: 1 μM SM144, lysate spiked with 250 nM M^Pro. Format: binding, SARS-CoV-2. Here is the method:
The proteome-wide selectivity was evaluated via an orthogonal chemoproteomic assay. […] Subsequently, the labeled proteins were biotinylated with copper-catalyzed click chemistry in the presence of Biotin-azide, and the biotinylated proteins were selectively enriched on Streptavidin-agarose beads, proteolyzed with trypsin and analyzed by chemoproteomic analysis. […] There were, however, a few cellular off-targets, including glutathione reductase (GSHR), adenosylhomocysteinase (SAHH), aldose reductase (ALDR), S-adenosylmethionine synthase isoform type-2 (METK2), gamma-actin (ACTG), tubulin alpha-4A chain (TBA4A), ubiquitin-like modifier-activating enzyme 1 (UBA1) and junction plakoglobin (PLAK).
A549-hACE2 cell lysate was prepared as described earlier. Endogenous biotinylated proteins were precleared by incubating the lysates with streptavidin-agarose beads (25 μL for 1 mg of total protein in the lysate) at room temperature for 1 h with constant mixing on an end-over-end shaker. The mixture was centrifuged (1200 g, 3 minute) to separate the beads and the supernatant (pre-cleared lysate). […] The assay mixture was incubated at 25° C. for 30 min. Then Biotin-N3 (200 μM), TCEP (1 mM), TBTA (0.3 mM) and freshly prepared CuSO4 (4 mM) were added sequentially, and the tubes were gently tumbled at room temperature for 2 h. […]

Each structure is given as a SMILES string. Bounds are passed on as bounds.

Experimental for A549-hACE2 cells: A549-hACE2 cells were treated with indicated doses of inhibitors for 24 hours. Then the media were collected for lactate dehydrogenase (LDH) assay.
Supernatant samples are transferred to a 96-well plate and an equal volume of CytoTox 96® Reagent is added to each well and incubated for 30 min.
Experimental for in vivo: Pharmacokinetics were evaluated in male C57Bl/6 mice, approximately 25 g. Test compounds were formulated at 0.3 mg/mL for intravenous dosing and 1 mg/mL for oral gavage. Formulation concentrations reflect free-base concentrations. Formulations were prepared by dissolving in DMSO (20× stock) and mixing 1:1 with tween-80. Prior to dosing, the formulation was diluted with sterile saline. The final formulation was 5% DMSO, 5% tween-80, 90% saline (v:v:v). Mice (n=3) were dosed at 10 μL per gram body weight. […] A total of 25 μL blood was collected at each time point. The hematocrit tubes were sealed with a wax plug and held on ice until plasma could be isolated via centrifugation in a microcentrifuge fit with a hematocrit rotor.
Drug levels were determined from 5 μL plasma. Plasma was treated with 75 μL 90/10 acetonitrile/water containing Carbamazepine as an internal standard (IS). Samples were loaded to a 96-well Millipore Multiscreen Solvinter 0.45 micron low binding PTFE hydrophilic filter plate and the filtrate was directly analyzed. All plasma samples were treated with 75 μL 90/10 acetonitrile/water with Carbamazepine as internal standard (IS) to extract the analyte and precipitate protein. The plates were agitated on ice for approximately five minutes prior to centrifugation into a collection plate. Separate standard curves were prepared in blank mouse plasma and brain homogenate and processed in parallel with the samples. The filtrate was directly analyzed by LC-MS/MS.

`CCOC(=O)C=CC(CC1CCNC1=O)NC(=O)C(Cc1ccccc1)NC(=O)C(N)Cc1ccccc1` (centres unmarked) [SM141]: in the data set with SARS-CoV-2 [1], the “viral RNA loads and titers in lung tissue vs vehicle control” value is listed as “remarkably lower”; the “inflammatory cytokines and chemokines (IFN-β, TNF-α, IL-1β, IL-6) in lung tissue” value was “Reduced inflammatory cytokines and chemokines were detected”; the “protection from SARS-CoV2-induced weight loss and lethality” value is “protects mice from SARS-CoV2-induced weight loss and lethality”; the “protection from SARS-CoV-2-induced weight loss and lethality” value was “protects K18-ACE2 mice from SARS-CoV-2-induced weight loss and lethality”. In the data set with SARS-CoV-2 [1], the “histopathological analysis of lung tissue” value was “significant reduction in lung inflammation and improved overall lung pathology”. The “in vivo antiviral efficacy, SM141 compared with SM142” value in the data set on SARS-CoV-2 [1] (survival) is on record as “better antiviral efficacy”. Also, in the data set “in vivo” (ip), the AUC(0-inf) was 827 ng·h/mL, the AUC(0-t) came to 1.6 µM·h, the Cmax turned out to be 2.7 µM and the Tmax was found to be 8.4 min. In addition, in “in vivo” (ip), the bioavailability is 35.2% and the half-life was 48 min. For the same compound, in the data set “in vivo” (iv), the AUC(0-inf) was 706 ng·h/mL, the AUC(0-t) is 1.3 µM·h, the peak level (Cmax) was 3.9 µM and the MRT inf turned out to be 24 min. Also, in “in vivo” (iv), the Tmax is 4.8 min, the Vd is 1.6 L/kg and the half-life is 48 min. Besides, the “concentration up to which no notable cytotoxicity is caused” value in the data set on A549-hACE2 cells (A549-hACE2 cells, 24 h, LDH) is above 50 µM. In addition, the cytoxcity in the data set with A549-hACE2 cells (Table 2) is above 100 µM. In data set [2], the “aqueous solubility, in words” value is reported as “more aqueous solubility than SM142”. Also, the “antiviral activity, in words” value in the data set on SARS-CoV-2 [3] is recorded as “almost completely blocks viral infection”.

Take `CCOC(=O)C=CC(CC1CCNC1=O)NC(=O)C(Cc1ccccc1)NC(=O)C(Cc1ccc(F)cc1)NC(=O)OC(C)(C)C` (centres unmarked) [SM142]: in the data set on SARS-CoV-2 [1], the “viral RNA loads and titers in lung tissue vs vehicle control” value is on record as “remarkably lower”; the “inflammatory cytokines and chemokines (IFN-β, TNF-α, IL-1β, IL-6) in lung tissue” value is “Reduced inflammatory cytokines and chemokines were detected”; the “protection from SARS-CoV2-induced weight loss and lethality” value is “protects mice from SARS-CoV2-induced weight loss and lethality”; the “protection from SARS-CoV-2-induced weight loss and lethality” value was “protects K18-ACE2 mice from SARS-CoV-2-induced weight loss and lethality”. Further, the “histopathological analysis of lung tissue” value with SARS-CoV-2 [1] is “significant reduction in lung inflammation and improved overall lung pathology”.

Regarding `C#CCOCCC(=O)NC(Cc1ccc(F)cc1)C(=O)NC(Cc1ccccc1)C(=O)NC(C=CC(=O)OCC)CC1CCNC1=O` (centres unmarked) [SM144], at M^Pro, the “proteome-wide selectivity (enriched proteins)” value was “M^Pro is the most statistically significantly enriched protein”.
